Common to all, as to type: functional
Assay [1] concerns Podosphaera fuliginea. The experiment in a line: Antifungal activity against Podosphaera fuliginea in cucumber at 125 ppm.
Assay [2] concerns Pseudoperonospora cubensis. The experiment in a line: Antifungal activity against Pseudoperonospora cubensis in cucumber at 500 ppm.
For assay [3], the system named is Podosphaera fuliginea. The experiment in a line: Antifungal activity against Podosphaera fuliginea in cucumber at 2 ppm.
Assay [4] concerns Pseudoperonospora cubensis. The experiment in a line: Antifungal activity against Pseudoperonospora cubensis in cucumber at 7.8 ppm.
Assay [5] relates to Podosphaera fuliginea. In words: Antifungal activity against Podosphaera fuliginea in cucumber at 7.8 ppm.
The subject of assay [6] is Podosphaera fuliginea. In words: Antifungal activity against Podosphaera fuliginea in cucumber at 31.3 ppm.
The test system of assay [7] is Pseudoperonospora cubensis. In words: Antifungal activity against Pseudoperonospora cubensis in cucumber at 2 ppm.
Assay [8] concerns Botrytis cinerea. The experiment in a line: Antifungal activity against Botryotinia fuckeliana in cucumber at 7.8 ppm.
Assay [9] relates to Botrytis cinerea. In words: Antifungal activity against Botryotinia fuckeliana in cucumber at 500 ppm.
Assay [10] relates to Pseudoperonospora cubensis. In words: Antifungal activity against Pseudoperonospora cubensis in cucumber at 125 ppm.
The subject of assay [11] is Pseudoperonospora cubensis. The experiment in a line: Antifungal activity against Pseudoperonospora cubensis in cucumber at 31.3 ppm.
Assay [12] relates to Podosphaera fuliginea. The experiment in a line: Antifungal activity against Podosphaera fuliginea in cucumber at 500 ppm.

Some results are limits rather than exact numbers.

Turning to `CO/N=C(\c1ccccc1/C=N/OC(C)c1ccccc1C(F)(F)F)c1nccn1C` (stereo not drawn), the Activity with Podosphaera fuliginea [1] is listed as 90%; in assay [2], below 50%.

Consider `CO/N=C(\c1ccccc1/C=N/OC(C)c1cccc(C(F)(F)F)c1)c1nccn1C` (stereo not drawn), for which the Activity in the assay on Podosphaera fuliginea [3] came to 90%; in [2], 50%.

In the case of `CO/N=C(\c1ccccc1/C=N/OC(C)c1ccc(Br)cc1)c1nccn1C` (stereo not drawn), the Activity in assay [4] stood at 50%; with Podosphaera fuliginea [5] it was 90%.

For the compound `CO/N=C(\c1ccccc1/C=N/OC(C)c1ccc(OC)cc1)c1nccn1C` (stereo not drawn), the Activity is given as 90% in the assay on Podosphaera fuliginea [6] and below 50% in [2].

Turning to `CO/N=C(\c1ccccc1/C=N/OC(C)c1ccc(OC(F)(F)F)cc1)c1nccn1C` (stereo not drawn), the figures for the Activity (in assay [7]; with Podosphaera fuliginea [3]) were 50% and 90%, respectively.

Consider `CO/N=C(\c1ccccc1/C=N/OC(C)c1ccc(Cl)cc1Cl)c1nccn1C` (stereo not drawn), for which the Activity is 90% in the assay with Podosphaera fuliginea [6] and below 50% in assay [2].

For the compound `CO/N=C(\c1ccccc1/C=N/OCc1ccc(Cl)cc1)c1nccn1C`, the values for the Activity (in [2]; in the assay with Podosphaera fuliginea [5]) were below 50% and 90%, respectively.

In the case of `CCC(O/N=C/c1ccccc1/C(=N\OC)c1nccn1C)c1ccc(Cl)c(Cl)c1` (stereo not drawn), the Activity in assay [4] is given as 50%; in the assay on Podosphaera fuliginea [6] it was 90%.

As for `CO/N=C(\c1ccccc1COc1ccc(Cl)cc1C)c1nccn1C`, the Activity in the assay with Botrytis cinerea [8] was 50%; in the assay with Podosphaera fuliginea [3] it was 90%; in [2], below 50%.

For `CO/N=C(\c1ccccc1COc1ccc(Cl)cn1)c1nccn1C`, the Activity with Botrytis cinerea [9] worked out at 50%; in the assay on Podosphaera fuliginea [6], 90%; in assay [2], 50%.

Turning to `CO/N=C(\c1ccccc1COc1ccc(C(F)(F)F)cn1)c1nccn1C`, the Activity in the assay with Botrytis cinerea [9] was 50%; in [2], 50%; with Podosphaera fuliginea [5], 90%.

With `CO/N=C(\c1ccccc1COc1ncc(Cl)cc1Cl)c1nccn1C`, the Activity stood at 50% in assay [10], 50% with Botrytis cinerea [9] and 90% in the assay on Podosphaera fuliginea [5].

On to `CO/N=C(\c1ccccc1/C=N/N=C(/C)c1ccc(Cl)cc1)c1nccn1C`, for which the Activity is recorded as below 50% in the assay on Botrytis cinerea [9], 50% in assay [11] and 90% in the assay on Podosphaera fuliginea [6].

Consider `CO/N=C(\c1ccccc1/C=N/N=C(/C)c1ccc(C(F)(F)F)cc1)c1nccn1C`, for which the Activity in [4] is 50%; in the assay with Botrytis cinerea [9], below 50%; with Podosphaera fuliginea [5], 90%.

Consider `CO/N=C(\c1ccccc1/C=N/N=C(/C)c1ccc(Cl)c(Cl)c1)c1nccn1C`, for which the Activity in assay [4] is given as 50%; with Botrytis cinerea [9], below 50%; with Podosphaera fuliginea [5], 90%.

Consider `CO/N=C(\c1ccccc1/C=N/OC(C)c1ccc(Cl)cc1)c1nccn1C` (stereo not drawn), for which the Activity in assay [4] amounted to 50%; in the assay on Botrytis cinerea [9], 50%; in the assay with Podosphaera fuliginea [3], 90%.

As for `CO/N=C(\c1ccccc1/C=N/OC(C)c1ccc(C(F)(F)F)cc1)c1nccn1C` (stereo not drawn), the Activity in assay [7] is 50%; in the assay on Botrytis cinerea [9], below 50%; in the assay on Podosphaera fuliginea [3], 90%.

In the case of `CO/N=C(\c1ccccc1/C=N/OC(C)c1ccc(Cl)c(Cl)c1)c1nccn1C` (stereo not drawn), the figures for the Activity (in assay [4]; in the assay on Botrytis cinerea [9]; in the assay with Podosphaera fuliginea [3]) were 50%, 50% and 90%, respectively.

In the case of `CO/N=C(\c1ccccc1/C=N/OC(C)c1ccccc1)c1nccn1C` (stereo not drawn), the figures for the Activity (in the assay on Podosphaera fuliginea [1]; in assay [2]) were 90% and below 50%, respectively.

Take `CO/N=C(\c1ccccc1/C=N/OC(C)c1ccccc1Cl)c1nccn1C` (stereo not drawn): the Activity with Podosphaera fuliginea [1] is reported as 90%; in assay [2] it was below 50%.

For `CO/N=C(\c1ccccc1/C=N/OC(C)c1cccc(Cl)c1)c1nccn1C` (stereo not drawn), the Activity was 90% in the assay on Podosphaera fuliginea [1] and below 50% in assay [2].

Consider `CO/N=C(\c1ccccc1/C=N/OC(C)c1ccccc1C)c1nccn1C` (stereo not drawn), for which the figures for the Activity (in the assay on Podosphaera fuliginea [12]; in [2]) were 90% and below 50%, respectively.

For the compound `CO/N=C(\c1ccccc1/C=N/OC(C)c1cccc(C)c1)c1nccn1C` (stereo not drawn), the Activity in the assay with Podosphaera fuliginea [6] was 90%; in [2], below 50%.

For `CO/N=C(\c1ccccc1/C=N/OC(C)c1ccc(C)cc1)c1nccn1C` (stereo not drawn), the values for the Activity (in the assay on Podosphaera fuliginea [6]; in [2]) were 90% and below 50%, respectively.

(Values after ChEMBL document CHEMBL3046967, “Synthesis and Fungicidal Activities of 2-(-Methoxyiminobenzyl)-1-methylimidazole Derivatives” (2001).)
